Experimental data published in the NIST ThermoML archive (doi:10.1021/acs.jced.7b01112).
Numbers after ± are expanded uncertainties.

Columns and labels:
[1] = Crystal; DTA
[2] = Molar enthalpy of transition or fusion; settings: Crystal; DSC

Normal melting temperature [1]: 341.30 ± 0.7 °C
Molar enthalpy of transition or fusion [2]: 55.1 ± 3.5 kJ/mol
Compound: O=C(O)c1ccc(C(=O)O)o1 [2,5-furandicarboxylic acid]
